{"source": "patent US4818770A", "about": "“Prevention of a plant disease by specific inhibition of fungal polyamine biosynthesis” (priority 1986, dated 1989)", "key": {"[1]": {"tested_on": "Colletotrichum lagenarium", "test": "Infection of National Pickling cucumber plants by cucumber anthracnose"}, "Erysiphe graminis": {"tested_on": "Erysiphe graminis", "test": "Wheat powdery mildew infection, colonies per plant", "conditions": "concentrations up to 5 mM", "procedure": "With wheat powdery mildew (E. graminis) 10-day-old seedlings were sprayed with solutions of DFMA or DFMO from 0.01 to 5.0 mM before and after inoculation of the plants with conidia. Inoculation occurred naturally in the greenhouse by distributing infected plants among the experimental plants for 24 hours. Infection was evaluated 10 days after inoculation by counting mildew colonies."}, "PA titers of bean leaves": {"tested_on": "PA titers of bean leaves", "test": "Polyamine titers in leaves of sprayed bean plants", "type": "in vivo, Phaseolus vulgaris", "conditions": "sprays 0.01, 0.1 and 1.0 mM; 1, 3 and 8 days later", "procedure": "PA analysis was performed on leaf samples collected from inhibitor-sprayed bean plants. Leaf samples were ground in prechilled mortars with 10% (w/v) HClO4 at a ratio of 200 mg fresh weight leaf per ml HClO4. Homogenates were centrifuged at 26,00 g for 20 minutes at 4° C. The clear supernatant fractions were used for dansylation according to a procedure previously described. Briefly, 0.4 ml of freshly prepared dansyl (Diaminonaphthylsulfonyl)-C1 (Sigma), 5 mg/ml in acetone, and 0.2 ml of saturated Na2 CO3 were added to 0.2 ml of the supernatant fraction. The dansylated PA were extracted with 0.25 ml benzene and the clear benzene layer was used for PA determinations by TLC on LK6D high resolution silica gel plates (Whatman). After development in chloroform:triethylamine (25:2 v/v) for about 1 hour and location by fluorescence under a UV lamp, the dansylpolyamine bands were scraped off, eluted in 4 ml of ethyl acetate and quantified with an Aminco-Bowman fluorimeter.\nThe effect of DFMO and DFMA sprays (0.01, 0.1, and 1.0 mM) on PA titers was also examined. Unifoliolate leaves were sprayed in the usual way and examined 1 and 3 days later, while the first trifolioloate leaves, unexpanded ata the time of spray and themselves unsprayed, were examined 8 days later."}, "Podosphaera leucotricha": {"tested_on": "Podosphaera leucotricha", "test": "Infection of apple by powdery mildew", "type": "in vivo"}, "Erysiphe polygoni": {"tested_on": "Erysiphe polygoni", "test": "Infection by bean powdery mildew", "type": "in vivo"}, "Uromyces phaseoli": {"tested_on": "Uromyces phaseoli", "test": "Bean rust lesions on unifoliolate leaves of Pinto bean sprayed before or after inoculation", "type": "in vivo"}, "[2]": {"tested_on": "bean plants (Phaseolus vulgaris cv Pinto)", "test": "Effect of sprays on growth and appearance of bean plants", "type": "in vivo", "conditions": "sprays 0.01, 0.1 and 1.0 mM", "description": "Unifoliolate leaves of 10-day-old bean seedlings were sprayed (400 ul per leaf) with DFMO or alpha-difluoromethylarginine (DFMA) at concentrations of 0.01-5 mM, before or after inoculation with uredospores of the bean rust, Uromyces phaseoli, Race 0. The inhibitor solutions were prepared in 0.01% Tween 20, with the pH adjusted to 7.0. Control plants without inhibitor were sprayed similarly and were allowed to dry before inoculation with the pathogen. After inoculation with rust uredospores (25 mg/100 ml of 0.01% Tween 20) all plants were placed in dew chambers (100% relative humidity) for 16 hours at 19° C. in total darkness. After exposures to inhibitors and uredospores, all plants were returned to the greenhouse and arranged randomly. Disease severity was evaluated 7 days after inoculation by counting foliar lesions. In control plants and those treated with low concentrations of DFMO, uredospores were collected randomly from each treatment to determine percent germination and pathogenicity. For determination of germination, spores were dusted onto Petri plates containing 10 mM 2-(N-morpholino)ethanesulfonic acid (Mes) at pH 7.0, 3 mM CaCl2, 2 mM MgSO4, and 1% purified agar, and incubated for 3 hr at 19° C. in the light."}, "[3]": {"tested_on": "Puccinia graminis fsp avenae", "type": "in vivo"}, "[4]": {"tested_on": "P. recondita f. sp. tritici", "type": "in vivo, Puccinia recondita f. sp. tritici"}, "Puccinia sorghi": {"tested_on": "Puccinia sorghi", "test": "Infection by corn rust", "type": "in vivo"}, "Verticillium dahliae [5]": {"tested_on": "Verticillium dahliae", "test": "Radial mycelial growth of Verticillium dahliae in vitro", "type": "cell-based", "conditions": "Verticillium dahliae, read-out: inhibition of radial growth relative to that observed with DFMO"}, "bean rust uredospores": {"tested_on": "bean rust uredospores", "test": "Germination and differentiation of bean rust uredospores in agar", "type": "cell-based, Uromyces phaseoli", "conditions": "for inhibition at 100 µM / inhibition at 500 µM / inhibition at 1000 µM / inhibition at 5000 µM: Uromyces phaseoli"}, "Verticillium dahliae [6]": {"tested_on": "Verticillium dahliae", "test": "Verticillium wilt symptoms in Bonny Best tomato after foliar spray", "type": "in vivo", "conditions": "concentrations up to 10 mM"}, "[7]": {"conditions": "postinoculation exposure, inhibitor 1.0 mM"}, "[8]": {"conditions": "postinoculation exposure, inhibitor 5.0 mM"}, "[9]": {"conditions": "preinoculation exposure, inhibitor 1.0 mM"}, "[10]": {"conditions": "preinoculation exposure, inhibitor 5.0 mM"}, "[11]": {"conditions": "read-out: Differentiation % Inhibiton"}, "[12]": {"conditions": "read-out: Germination % Inhibition"}}, "note": "Where “and” joins values, the source holds several entries; their conditions need not be identical. Equal entries are not always repeated. Where two headings read alike, the source gives them in different places."}
{"smiles": "N=C(N)NCCC[C@](N)(C(=O)O)C(F)F", "note": "[DFMA, alpha-difluoromethylarginine]", "values": [{"measurement": "Lesions per plant", "setting": "[1]; 1.0 mM", "value": 73, "unit": "per plant"}, {"measurement": "Percent control", "setting": "[1]; 1.0 mM", "value": 10, "unit": "%"}, {"measurement": "Lesions per plant", "setting": "[1]; 5.0 mM", "value": 71, "unit": "per plant"}, {"measurement": "Percent control", "setting": "[1]; 5.0 mM", "value": 12, "unit": "%"}, {"measurement": "Lesions per plant", "setting": "[1]; 10.0 mM", "value": 73, "unit": "per plant"}, {"measurement": "Percent control", "setting": "[1]; 10.0 mM", "value": 10, "unit": "%"}, {"measurement": "control of wheat powdery mildew infection", "setting": "Erysiphe graminis", "value": "ineffective"}, {"measurement": "PA levels in treated leaves", "setting": "PA titers of bean leaves", "value": "no significant reductions"}, {"measurement": "Percent control", "setting": "Podosphaera leucotricha; 1 mM", "value": 0.8, "unit": "%"}, {"measurement": "Percent control", "setting": "Podosphaera leucotricha; 5 mM", "value": 28.8, "unit": "%"}, {"measurement": "Percent control", "setting": "Podosphaera leucotricha; 10 mM", "value": 0.0, "unit": "%"}, {"measurement": "control of apple powdery mildew", "setting": "Podosphaera leucotricha; 1-10 mM applications", "value": "essentially ineffective"}, {"measurement": "Percent control", "setting": "Erysiphe polygoni; 1 mM", "value": 7, "unit": "%"}, {"measurement": "Percent control", "setting": "Erysiphe polygoni; 5 mM", "value": 35, "unit": "%"}, {"measurement": "Percent control", "setting": "Erysiphe polygoni; 10 mM", "value": 35, "unit": "%"}, {"measurement": "reduction of bean rust infection", "setting": "Uromyces phaseoli; even at 5.0 mM", "value": "ineffective"}, {"measurement": "germination or pathogenicity of uredospores collected from treated plants", "setting": "Uromyces phaseoli; plants treated with low concentrations", "value": "no decrease in germination or pathogenicity"}, {"measurement": "Lesions per cm^2", "setting": "Uromyces phaseoli; [7]", "value": "56 ± 3", "unit": "per cm^2"}, {"measurement": "Lesions per leaf", "setting": "Uromyces phaseoli; [7]", "value": "2829 ± 242", "unit": "per leaf"}, {"measurement": "Lesions per cm^2", "setting": "Uromyces phaseoli; [8]", "value": "50 ± 2", "unit": "per cm^2"}, {"measurement": "Lesions per leaf", "setting": "Uromyces phaseoli; [8]", "value": "2195 ± 169", "unit": "per leaf"}, {"measurement": "Lesions per cm^2", "setting": "Uromyces phaseoli; [9]", "value": "51 ± 4", "unit": "per cm^2"}, {"measurement": "Lesions per leaf", "setting": "Uromyces phaseoli; [9]", "value": "3101 ± 217", "unit": "per leaf"}, {"measurement": "Lesions per cm^2", "setting": "Uromyces phaseoli; [10]", "value": "46 ± 4", "unit": "per cm^2"}, {"measurement": "Lesions per leaf", "setting": "Uromyces phaseoli; [10]", "value": "2928 ± 317", "unit": "per leaf"}, {"measurement": "growth of the bean plants", "setting": "[2]", "value": "no effect"}, {"measurement": "Percent control", "setting": "[3]; 0.01 mM", "value": 40.4, "unit": "%"}, {"measurement": "Percent control", "setting": "[3]; 0.025 mM", "value": 32.6, "unit": "%"}, {"measurement": "Percent control", "setting": "[3]; 0.065 mM", "value": 41.9, "unit": "%"}, {"measurement": "Percent control", "setting": "[3]; 0.10 mM", "value": 53.1, "unit": "%"}, {"measurement": "Percent control", "setting": "[3]; 0.13 mM", "value": 61.5, "unit": "%"}, {"measurement": "Percent control", "setting": "[3]; 0.16 mM", "value": 57.0, "unit": "%"}, {"measurement": "Percent control", "setting": "[3]; 0.20 mM", "value": 63.8, "unit": "%"}, {"measurement": "Percent control", "setting": "[3]; 1.00 mM", "value": 86.0, "unit": "%"}, {"measurement": "effectiveness against oat stem rust compared with DFMO", "setting": "[3]; in vivo", "value": "nearly as effective as DFMO"}, {"measurement": "Uredia/plant", "setting": "[4]; 0.01 mM", "value": "74 Uredia/plant and 49 Uredia/plant"}, {"measurement": "Uredia/plant", "setting": "[4]; 0.025 mM", "value": "62 Uredia/plant and 40 Uredia/plant"}, {"measurement": "% control", "setting": "[4]; 0.065 mM", "value": "32% and 54%"}, {"measurement": "Uredia/plant", "setting": "[4]; 0.065 mM", "value": "54 Uredia/plant and 37 Uredia/plant"}, {"measurement": "% control", "setting": "[4]; 0.10 mM", "value": "37% and 51%"}, {"measurement": "Uredia/plant", "setting": "[4]; 0.10 mM", "value": "50 Uredia/plant and 39 Uredia/plant"}, {"measurement": "% control", "setting": "[4]; 0.13 mM", "value": "34% and 47%"}, {"measurement": "Uredia/plant", "setting": "[4]; 0.13 mM", "value": "53 Uredia/plant and 42 Uredia/plant"}, {"measurement": "% control", "setting": "[4]; 0.16 mM", "value": "39% and 49%"}, {"measurement": "Uredia/plant", "setting": "[4]; 0.16 mM", "value": "49 Uredia/plant and 41 Uredia/plant"}, {"measurement": "% control", "setting": "[4]; 0.20 mM", "value": "46% and 47%"}, {"measurement": "Uredia/plant", "setting": "[4]; 0.20 mM", "value": "43 Uredia/plant and 42 Uredia/plant"}, {"measurement": "% control", "setting": "[4]; 1.00 mM", "value": "57% and 77%"}, {"measurement": "Uredia/plant", "setting": "[4]; 1.00 mM", "value": "34 Uredia/plant and 18 Uredia/plant"}, {"measurement": "Percent control", "setting": "Puccinia sorghi; 0.01 mM", "value": 13.0, "unit": "%"}, {"measurement": "Percent control", "setting": "Puccinia sorghi; 0.025 mM", "value": 7.2, "unit": "%"}, {"measurement": "Percent control", "setting": "Puccinia sorghi; 0.065 mM", "value": 0.0, "unit": "%"}, {"measurement": "Percent control", "setting": "Puccinia sorghi; 0.10 mM", "value": 0.0, "unit": "%"}, {"measurement": "Percent control", "setting": "Puccinia sorghi; 0.13 mM", "value": 9.3, "unit": "%"}, {"measurement": "Percent control", "setting": "Puccinia sorghi; 0.16 mM", "value": 27.1, "unit": "%"}, {"measurement": "Percent control", "setting": "Puccinia sorghi; 0.20 mM", "value": 14.0, "unit": "%"}, {"measurement": "control of corn rust", "setting": "Puccinia sorghi; up to 0.20 mM", "value": "essentially ineffective"}, {"measurement": "inhibition at 500 µM", "setting": "Verticillium dahliae [5]", "value": "~50", "unit": "%"}, {"measurement": "Differentiation %", "setting": "bean rust uredospores; 0.1 mM", "value": 46, "unit": "%"}, {"measurement": "Germination %", "setting": "bean rust uredospores; 0.1 mM", "value": 36, "unit": "%"}, {"measurement": "Differentiation %", "setting": "bean rust uredospores; 0.5 mM", "value": 30, "unit": "%"}, {"measurement": "Germination %", "setting": "bean rust uredospores; 0.5 mM", "value": 36, "unit": "%"}, {"measurement": "Differentiation %", "setting": "bean rust uredospores; 1.0 mM", "value": 23, "unit": "%"}, {"measurement": "Germination %", "setting": "bean rust uredospores; 1.0 mM", "value": 31, "unit": "%"}, {"measurement": "Differentiation %", "setting": "bean rust uredospores; 5.0 mM", "value": 18, "unit": "%"}, {"measurement": "Germination %", "setting": "bean rust uredospores; 5.0 mM", "value": 26, "unit": "%"}, {"measurement": "inhibition at 100 µM", "setting": "bean rust uredospores; [11]", "value": 22, "unit": "%"}, {"measurement": "inhibition at 500 µM", "setting": "bean rust uredospores; [11]", "value": 49, "unit": "%"}, {"measurement": "inhibition at 1000 µM", "setting": "bean rust uredospores; [11]", "value": 61, "unit": "%"}, {"measurement": "inhibition at 5000 µM", "setting": "bean rust uredospores; [11]", "value": 69, "unit": "%"}, {"measurement": "inhibition at 100 µM", "setting": "bean rust uredospores; [12]", "value": 14, "unit": "%"}, {"measurement": "inhibition at 500 µM", "setting": "bean rust uredospores; [12]", "value": 14, "unit": "%"}, {"measurement": "inhibition at 1000 µM", "setting": "bean rust uredospores; [12]", "value": 26, "unit": "%"}, {"measurement": "inhibition at 5000 µM", "setting": "bean rust uredospores; [12]", "value": 38, "unit": "%"}, {"measurement": "symptom severity and time of symptom expression", "setting": "Verticillium dahliae [6]", "value": "did not alter either symptom severity nor time of symptom expression"}]}
